Data as given in US7838512B2, “DNA damaging agents in combination with tyrosine kinase inhibitors” (Arch Development Corporation, priority 1994, dated 2010).

Legend:
[1] = tested on: pancreatic cancer cell; details: in vitro; cited from earlier work
[2] = tested on: tumor; details: alone, in vivo; cited from earlier work
[3] = tested on: p56/p53^lyn; assay: Anti-Lyn immune complex kinase assay (autophosphorylation and enolase phosphorylation) from drug-treated HL-60 cells; assay type: cell-based, human; details: for effect of pretreatment on MMC-stimulated p56/p53^lyn activity: 10^−5 M inhibitor 1 h, then MMC 1 h
[4] = tested on: tumor; details: nude mice; cited from earlier work
[5] = tested on: cancer cell; details: in vitro; cited from earlier work
[6] = tested on: pp60^v-src; details: cited from earlier work
[7] = tested on: pp110^gag-fes; details: cited from earlier work
[8] = tested on: p56/p53^lyn; assay: Anti-Lyn immune complex kinase assay from irradiated (200 cGy) or H2O2-treated HL-60 cells; assay type: cell-based, human; details: for effect on X-ray-induced p56/p53^lyn activity: HL-60 cells, 200 cGy, harvested at 12 hours
Description: HL-60 myeloid leukemia cells were grown in RPMI-1640 medium containing 15% heat-inactivated fetal bovine serum (FBS) supplemented with 100 units/ml penicillin, […], 2 mM L-glutamine, 1 mM sodium pyruvate and 1 mM non-essential amino acids. Cells in logarithmic growth phase were suspended in complete RPMI-1640 medium with 0.5% FBS 18 hours prior to irradiation.
Irradiation was performed at room temperature using a Gammacell 1000 (Atomic Energy of Canada, Ottawa) under aerobic conditions with a ^137Cs source emitting at a fixed dose rate of 13.3 Gy/min as determined by dosimetry.
Cells (2−3×10^7) were washed twice with ice cold phosphate buffered saline (PBS) and lysed in 2 ml of lysis buffer (20 mM Tris, pH 7.4, 150 mM NaCl, 1% NP-40, 1 mM sodium vanadate, 1 mM phenylmethylsulfonyl fluoride, 1 mM DTT, and […] of leupeptin and aprotinin). After incubation on ice for 30 min, insoluble material was removed by centrifugation at 1400 rpm for 10 min at 4° C. Soluble proteins were precleared by incubation with 5 mg/ml rabbit anti-mouse IgG for 1 hour at 4° C. and then addition of protein A sepharose for 30 min.
The supernatants were incubated with 2.5 μl of anti-human Fyn, 2 μl of anti-human Lyn, 3 μl of anti-human Lyk (N-terminal) or 3 μl of anti-Src antibody (UBI, Lake Placid, N.Y.) for 1 hour at 4° C. followed by 30 min with protein A-sepharose. The immune complexes were washed three times with lysis buffer, once with kinase buffer (20 mM HEPES, pH 7.0, 10 mM MnCl2 and 10 mM MgCl2) and resuspended in 30 μl of kinase buffer containing 1 mCi/ml [γ-^32P]ATP (3000 Ci/mmol; NEN, Boston, Mass.). The reaction was incubated for 10 min at 30° C. and terminated by the addition of 2× SDS sample buffer. The proteins were resolved in 10% SDS-polyacrylamide gels, dried and analyzed by autoradiography.
Immune complexes as prepared for autophosphorylation assays were washed three times with lysis buffer and once with kinase buffer. The beads were resuspended in 30 μl of kinase buffer containing 1 mCi/ml [γ-^32p]ATP and 3-5 mg of acid treated enolase (Sigma). The reaction was incubated for 10 min at 30° C. and terminated by the addition of 2× SDS sample buffer. The proteins were resolved by 10% SDS-PAGE. Equal loading of the enolase was determined by staining with Coomassie blue. The gels were then destained and analyzed by autoradiography. Radioactive bands were also excised from the gel and -quantitated by scintillation counting.

[9] = tested on: c-jun and EGR-1 gene expression; details: irradiated HL-60 cells; cited from earlier work
[10] = tested on: p56/p53^lyn; assay: Phosphorylation of cdc2 peptides by anti-Lyn immune complexes; assay type: cell-based, human; details: HL-60 cells, MMC 1 h
Description: Immune complexes were also resuspended in […] kinase buffer containing 1 mCi/ml [γ-^32P]ATP and either 100 mM cdc2 peptide (amino acids 7 to 20; […]; SEQ ID NO:1) or 100 mM mutated cdc2 peptide with Phe-15 substituted for Tyr-15 ([…]; SEQ ID NO:2). The reactions were incubated for 15 min at 30° C. and terminated by spotting on P81 phosphocellulose discs (GIBCO/BRL). The discs were washed twice with 1% phosphoric acid and twice with water before analysis by liquid scintillation counting.

[11] = tested on: p56/p53^lyn; assay: MMC added directly to the kinase reaction of anti-Lyn immune complexes from untreated HL-60 cells; assay type: biochemical, human; details: 10^−5 M MMC added to kinase reaction, 15 min
Description: FIG. 4A, FIG. 4B and FIG. 4C. MMC-induced p56/p53^lyn activation is sensitive to tyrosine kinase inhibitors and is not a direct effect. […] Anti-Lyn immunoprecipitates were analyzed for phosphorylation of p56/p53^lyn and enolase. […] Lysates from untreated HL-60 cells were immunoprecipitated with anti-Lyn. […] The reaction was analyzed for phosphorylation of p56/p53^lyn and enolase.
The supernatant fraction was incubated with pre-immune rabbit serum, anti-Fyn, anti-Lyn, anti-Src (UBI, Lake Placid, N.Y.) or anti-cdc2 (sc-54, Santa Cruz Biotechnology, Santa Cruz, Calif.) antibodies for 1 h at 4° C. followed by 30 min after addition of protein A-sepharose. The immune complexes were washed three times with lysis buffer and once with kinase buffer (20 mM HEPES, pH 7.0, 10 mM MnCl2 and 10 mM MgCl2) and resuspended in […] of kinase buffer containing 1 mCi/ml [γ-^32P]ATP (3000 Ci/mmol; NEN, Boston, Mass.) with and without 5-8 mg of acid-treated enolase (Sigma). The reaction was incubated for 15 min at 30° C. and terminated by the addition of 2× SDS sample buffer. The proteins were separated in 10% SDS-polyacrylamide gels and analyzed by autoradiography. Radioactive bands were excised from certain gels and quantitated by scintillation counting.

[12] = tested on: p34^cdc2; assay: Immunoprecipitation of p34^cdc2 and immunoblotting with anti-P-Tyr / anti-cdc2; assay type: cell-based, human; details: HL-60 cells, MMC 1 h
Description: (§1) Immunoblot analysis. Immune complexes bound to protein A-sepharose were prepared as for the autophosphorylation assays. Proteins were separated in 10% SDS-polyacrylamide gels and transferred to nitrocellulose paper. The residual binding sites were blocked by incubating the filters in 5% dry milk in PBST (PBS/0.05% Tween-20) for 1 h at room temperature. The blots were subsequently incubated with anti-cdc2 or anti-phosphotyrosine (anti-P-Tyr; MAb 4G10, UBI). After washing twice with PBST, the filters were incubated for 1 h at room temperature with anti-mouse IgG (whole molecule) peroxidase conjugate (Sigma) in 5% milk/PBST. The filters were then washed and the antigen-antibody complexes visualized by the ECL detection system (Amersham, Arlington Heights, Ill.).

[13] = tested on: p56/p53^lyn; assay: Immunoblot of anti-Lyn immunoprecipitates (anti-Lyn, anti-P-Tyr); assay type: cell-based, human; details: HL-60 cells, MMC 1 h versus control
Description: as §1

[14] = tested on: pp60^c-src; assay: Anti-Src immune complex kinase assay from MMC-treated HL-60 cells; assay type: cell-based, human; details: 10^−5 M MMC, 1 h
[15] = tested on: p56/p53^lyn and p34^cdc2; assay: Association of p56/p53^lyn with p34^cdc2 (GST-Lyn binding, coimmunoprecipitation); assay type: cell-based, human; details: HL-60 cells, 10^−5 M MMC, 1 h
Description: Coimmunoprecipitation. Immunoprecipitations were performed with anti-p34^cdc2 at 5 mg/ml cell lysate. Immune complexes were collected on protein A-Sepharose beads (Pharmacia), washed three times with lysis buffer and twice with kinase buffer, resuspended in kinase buffer and then incubated for 10 min at 30° C. in the presence of 1 mCi/ml [γ-^32P]ATP. One aliquot of the kinase reaction was subjected to SDS-PAGE and autoradiography. The other aliquot was washed in lysis buffer to remove free ATP and then boiled in 20 mM Tris-HCl, pH 8.0 containing 0.5% SDS and 1 mM DTT to disrupt protein-protein interaction. After dilution to 0.1% SDS, a secondary immunoprecipitation was then performed by adding anti-Lyn antibody and protein A-Sepharose beads. The anti-Lyn immunoprecipitates were then subjected to SDS-PAGE and autoradiography.
Fusion protein binding assays. The plasmid encoding a glutathione S-transferase (GST)-Lyn (amino acids 1 to 243) fusion protein was obtained from T. Pawson, Toronto, Canada and transfected into E. coli DH5a (Pleiman et al., 1993). The fusion protein was induced with IPTG, purified by affinity chromatography using glutathione-Sepharose beads (Pharmacia) and equilibrated in lysis buffer. HL-60 cell lysates were incubated with 50 mg immobilized GST or GST-Lyn for 2 h at 4° C. […]

[16] = tested on: p34^cdc2; assay: Anti-cdc2 immunoprecipitates assayed for phosphorylation of H1 histone; assay type: cell-based; details: MMC-treated cells
[17] = tested on: p59^fyn; assay: Anti-Fyn immune complex autophosphorylation assay from MMC-treated HL-60 cells; assay type: cell-based, human; details: 10^−5 M MMC, 1 h
[18] = tested on: p56/p53^lyn; assay: p56/p53^lyn activity in U-937 myeloid leukemia cells; assay type: cell-based
[19] = tested on: protein-tyrosine kinase; details: compared with erbstatin; cited from earlier work
[20] = target: EGF-stimulated receptors (Homo sapiens, UniProt P00533); details: intact cells, time and dose dependent; cited from earlier work
Sequence of EGF-stimulated receptors (P00533 25-1210): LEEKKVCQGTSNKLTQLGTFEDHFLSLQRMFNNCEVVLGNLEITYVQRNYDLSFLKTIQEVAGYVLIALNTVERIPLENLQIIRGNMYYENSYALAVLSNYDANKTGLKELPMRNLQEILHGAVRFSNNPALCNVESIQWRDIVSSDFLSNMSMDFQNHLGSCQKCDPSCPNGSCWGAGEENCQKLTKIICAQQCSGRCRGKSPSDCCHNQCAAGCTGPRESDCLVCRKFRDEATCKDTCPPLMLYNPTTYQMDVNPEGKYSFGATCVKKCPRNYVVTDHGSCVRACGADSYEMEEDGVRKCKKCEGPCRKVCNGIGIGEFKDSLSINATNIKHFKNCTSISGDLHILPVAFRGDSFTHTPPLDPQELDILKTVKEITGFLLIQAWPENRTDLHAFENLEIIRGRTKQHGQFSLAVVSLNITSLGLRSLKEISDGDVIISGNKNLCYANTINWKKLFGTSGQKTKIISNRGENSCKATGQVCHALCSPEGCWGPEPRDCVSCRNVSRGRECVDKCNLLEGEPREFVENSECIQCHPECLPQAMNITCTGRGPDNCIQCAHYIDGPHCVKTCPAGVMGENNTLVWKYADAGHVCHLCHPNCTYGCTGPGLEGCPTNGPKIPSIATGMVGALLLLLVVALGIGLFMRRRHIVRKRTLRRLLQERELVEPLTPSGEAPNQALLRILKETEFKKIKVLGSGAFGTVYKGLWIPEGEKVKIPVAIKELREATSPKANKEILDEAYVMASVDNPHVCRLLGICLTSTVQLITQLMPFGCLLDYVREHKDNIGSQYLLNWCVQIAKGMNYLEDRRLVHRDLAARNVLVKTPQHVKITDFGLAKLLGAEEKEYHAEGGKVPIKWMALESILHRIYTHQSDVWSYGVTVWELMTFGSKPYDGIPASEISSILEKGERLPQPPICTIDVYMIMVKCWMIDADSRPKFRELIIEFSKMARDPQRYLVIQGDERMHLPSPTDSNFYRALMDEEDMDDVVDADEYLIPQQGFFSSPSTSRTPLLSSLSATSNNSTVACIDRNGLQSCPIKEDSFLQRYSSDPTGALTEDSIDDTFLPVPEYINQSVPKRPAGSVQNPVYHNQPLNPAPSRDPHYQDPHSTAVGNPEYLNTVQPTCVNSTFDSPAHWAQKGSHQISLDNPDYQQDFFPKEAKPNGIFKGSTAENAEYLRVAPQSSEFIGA

N#CC(C#N)=Cc1ccc(O)c(O)c1 [AG18]
pancreatic cancer cell growth [1]: inhibit pancreatic cancer cell growth

O=C1NC(=O)c2cc(Nc3ccccc3)c(Nc3ccccc3)cc21 [4,5-Dianilinophthalimide]
antitumor activity [2]: in vivo antitumor activity

N#C/C(=C\c1ccc(O)c(O)c1)C(N)=S [T47]
pancreatic cancer cell growth [1]: inhibit pancreatic cancer cell growth

Cc1c[nH]c2c1[C@@]13C[C@@H]1CN(C(=O)c1cc4cc(NC(=O)c5cc6ccccc6o5)ccc4[nH]1)C3=CC2=O [adozelesin]
p56/p53^lyn and enolase phosphorylation ([3]; 2×10^−6 M, 1 h): stimulation of p56/p53^lyn and enolase phosphorylation

COc1ccc(/C=C(\C#N)c2cccnc2)cc1OC [RG-13022]
tumor growth [4]: suppress
cancer cell proliferation [5]: suppress

O=c1c(-c2ccc(O)cc2)coc2cc(O)cc(O)c12 [genistein]
inhibitory activity against pp60^v-src [6]: specific inhibitory activity
effect of pretreatment on MMC-stimulated p56/p53^lyn activity [3]: completely blocks
inhibitory activity against pp110^gag-fes [7]: specific inhibitory activity
effect on X-ray-induced p56/p53^lyn activity ([8]; 10 μM inhibitor 1 hour): inhibited

CC(=O)N[C@@H](CS)C(=O)O [NAC, N-acetyl cysteine]
effect on X-ray-induced p56/p53^lyn activity ([8]; 30 mM NAC 1 hour): little effect
effect on induction of c-jun and EGR-1 gene expression [9]: completely blocks

CO[C@@]12[C@H](COC(N)=O)C3=C(C(=O)C(C)=C(N)C3=O)N1C[C@@H]1N[C@@H]12 [MMC, Mitomycin C]
phosphorylation of mutated cdc2 peptide (Tyr-15 to Phe-15) by anti-Lyn complexes [10]: little phosphorylation
stimulation of cdc2 peptide phosphorylation by anti-Lyn immune complexes ([10]; versus control cells, cdc2 peptide amino acids 7 to 20): ~2 fold
increase in enolase phosphorylation ([3]; 10^−5 M MMC, 30 min): 4.2 fold
p56/p53^lyn activity (autophosphorylation of anti-Lyn immunoprecipitates) ([3]; 10^−5 M MMC, 1 h): increase
increase in enolase phosphorylation ([3]; 10^−5 M MMC, 12 h): 4.1 fold
p56/p53^lyn activity (phosphorylation of p56/p53^lyn and enolase) ([3]; 10^−6 and 10^−5 M MMC, 1 h): more pronounced stimulation
p56/p53^lyn activity (phosphorylation of p56/p53^lyn and enolase) ([3]; 10^−8 and 10^−7 M MMC, 1 h): Increases
kinase activity of anti-Lyn immune complexes incubated with MMC [11]: decrease in kinase activity
tyrosine phosphorylation of p34^cdc2 (anti-P-Tyr reactivity of anti-cdc2 precipitates) [12]: increase in reactivity
tyrosine phosphorylation of p56/p53^lyn (anti-P-Tyr immunoblot) [13]: increase in tyrosine phosphorylation
pp60^c-src activity [14]: decrease
interaction between p56/p53^lyn and p34^cdc2 [15]: induces an interaction
p34^cdc2 kinase activity (H1 histone phosphorylation) [16]: loss of kinase activity
autophosphorylation of p59^fyn [17]: decreased
p56/p53^lyn activity [18]: increases in p56/p53^lyn activity

O=C(O)c1cc(N(Cc2ccccc2O)Cc2cc(O)ccc2O)ccc1O [Lavendustin A]
inhibitory potency relative to erbstatin [19]: about 50 times

OO [H2O2]
phosphorylation of p56/p53^lyn or enolase ([8]; HL-60 cells treated with 50 mM H2O2): did not show a detectable increase

CC(C)(C)c1cc(C=C(C#N)C#N)cc(C(C)(C)C)c1O [AG17]
pancreatic cancer cell growth [1]: inhibit pancreatic cancer cell growth

CO[C@H]1[C@@H](OC)C[C@H](C)[C@@H](OC)C2=CC(=O)C=C(NC(=O)/C(C)=C/C=C\[C@H](OC)[C@@H](OC(N)=O)/C(C)=C/[C@@H]1C)C2=O [herbimycin A]
autophosphorylation of EGF-stimulated receptors [20]: inhibit the autophosphorylation
effect of pretreatment on MMC-stimulated p56/p53^lyn activity [3]: completely blocks
effect on X-ray-induced p56/p53^lyn activity ([8]; 10 μM inhibitor 1 hour): inhibited

N#C/C(=C\c1cc(Cl)cc(Cl)c1)c1cccnc1 [RG-14620, (Z)-alpha-[(3,5-dichlorophenyl)methylene]-3-pyridylacetonitrile]
tumor growth [4]: suppress
cancer cell proliferation [5]: suppress

N.N.[Cl][Pt][Cl] [cis-platinum]
p56/p53^lyn kinase activity (phosphorylation of p56/p53^lyn and enolase) ([3]; 10^−5 M, 1 h): stimulation of the p56/p53^lyn kinase
